Experimental data taken from patent US8877748B2, “Heterocyclic fused anthraquinone derivatives, manufacturing method and pharmaceutical composition using thereof” (National Defense Medical Center, priority 2012, dated 2014).
“And” between values parts separate entries of the source, which are not always exact repeats. Identical values can stand only once.

How the values were obtained:
[1] = tested on: NCI-H23; test: NCI one-dose screening, non-small cell lung cancer NCI-H23; assay type: cell-based, human; details: 10 μM
[2] = tested on: NCI-H460; test: NCI one-dose screening, non-small cell lung cancer NCI-H460; assay type: cell-based, human; details: 10 μM
[3] = tested on: T-47D; test: NCI one-dose screening, breast cancer T-47D; assay type: cell-based, human; details: 10 μM
[4] = tested on: MALME-3M; test: NCI one-dose screening, melanoma MALME-3M; assay type: cell-based, human; details: 10 μM
[5] = tested on: HL-60, TB; test: NCI one-dose screening, leukemia HL-60, TB; assay type: cell-based, human; details: 10 μM
[6] = tested on: SF-539; test: NCI one-dose screening, CNS cancer SF-539; assay type: cell-based, human; details: 10 μM
[7] = tested on: CAKI-1; test: NCI one-dose screening, renal cancer CAKI-1; assay type: cell-based, human; details: 10 μM
[8] = tested on: OVCAR-8; test: NCI one-dose screening, ovarian cancer OVCAR-8; assay type: cell-based, human; details: 10 μM
[9] = tested on: M14; test: NCI one-dose screening, melanoma M14; assay type: cell-based, human; details: 10 μM
[10] = tested on: OVCAR-4; test: NCI one-dose screening, ovarian cancer OVCAR-4; assay type: cell-based, human; details: 10 μM
[11] = tested on: TK-10; test: NCI one-dose screening, renal cancer TK-10; assay type: cell-based, human; details: 10 μM
[12] = tested on: SNB-19; test: NCI one-dose screening, CNS cancer SNB-19; assay type: cell-based, human; details: 10 μM
[13] = tested on: SK-OV-3; test: NCI one-dose screening, ovarian cancer SK-OV-3; assay type: cell-based, human; details: 10 μM
[14] = tested on: HOP-92; test: NCI one-dose screening, non-small cell lung cancer HOP-92; assay type: cell-based, human; details: 10 μM
[15] = tested on: NCI-H226; test: NCI one-dose screening, non-small cell lung cancer NCI-H226; assay type: cell-based, human; details: 10 μM
[16] = tested on: SK-MEL-2; test: NCI one-dose screening, melanoma SK-MEL-2; assay type: cell-based, human; details: 10 μM
[17] = tested on: human tumor cell lines; test: NCI one-dose screening, Mean / Delta / Range of growth percent over all tested cell lines; assay type: cell-based; details: 10 μM
[18] = tested on: UACC-257; test: NCI one-dose screening, melanoma UACC-257; assay type: cell-based, human; details: 10 μM
[19] = tested on: SK-MEL-28; test: NCI one-dose screening, melanoma SK-MEL-28; assay type: cell-based, human; details: 10 μM
[20] = tested on: SNB-75; test: NCI one-dose screening, CNS cancer SNB-75; assay type: cell-based, human; details: 10 μM
[21] = tested on: HCT-15; test: NCI one-dose screening, colon cancer HCT-15; assay type: cell-based, human; details: 10 μM
[22] = tested on: IGROV1; test: NCI one-dose screening, ovarian cancer IGROV1; assay type: cell-based, human; details: 10 μM
[23] = tested on: HCT-116; test: NCI one-dose screening, colon cancer HCT-116; assay type: cell-based, human; details: 10 μM
[24] = tested on: PC-3; test: NCI one-dose screening, prostate cancer PC-3; assay type: cell-based, human; details: 10 μM
[25] = tested on: NCl/ADR-RES; test: NCI one-dose screening, breast cancer NCl/ADR-RES; assay type: cell-based, human; details: 10 μM; listed under Ovarian cancer
[26] = tested on: U251; test: NCI one-dose screening, CNS cancer U251; assay type: cell-based, human; details: 10 μM
[27] = tested on: NCI-H522; test: NCI one-dose screening, non-small cell lung cancer NCI-H522; assay type: cell-based, human; details: 10 μM
[28] = tested on: K562cell line; test: NCI one-dose screening, leukemia K562; assay type: cell-based, human; details: 10 μM
[29] = tested on: A549/ATCC; test: NCI one-dose screening, non-small cell lung cancer A549/ATCC; assay type: cell-based, human; details: 10 μM
[30] = tested on: COLO 205; test: NCI one-dose screening, colon cancer COLO 205; assay type: cell-based, human; details: 10 μM
[31] = tested on: PRMI-8226 cell line; test: NCI one-dose screening, leukemia PRMI-8226; assay type: cell-based, human; details: 10 μM
[32] = tested on: HS 578-T; test: NCI one-dose screening, breast cancer HS 578-T; assay type: cell-based, human; details: 10 μM; Breast cancer
[33] = tested on: SF-295; test: NCI one-dose screening, CNS cancer SF-295; assay type: cell-based, human; details: 10 μM
[34] = tested on: UACC-62; test: NCI one-dose screening, melanoma UACC-62; assay type: cell-based, human; details: 10 μM
[35] = tested on: PC-3 prostate cancer cell line; test: SRB assay cell viability, PC-3 prostate cancer cell line; assay type: cell-based, human; details: Homo sapiens, PC-3 prostate cancer cell line, Table II prints no unit, μM printed, read-out: SRB assay: 50% inhibition of cancer cell proliferation of sample concentration (IC50) of PC-3 prostate cancer cell line
[36] = tested on: RXF, 393; test: NCI one-dose screening, renal cancer RXF, 393; assay type: cell-based, human; details: 10 μM
[37] = tested on: UO-31; test: NCI one-dose screening, renal cancer UO-31; assay type: cell-based, human; details: 10 μM
[38] = tested on: MDA, -MB-435; test: NCI one-dose screening, breast cancer MDA, -MB-435; assay type: cell-based, human; details: 10 μM; listed under Melanoma
[39] = tested on: MDA-MB-231/ATCC; test: NCI one-dose screening, breast cancer MDA-MB-231/ATCC; assay type: cell-based, human; details: 10 μM
[40] = tested on: LOX IMVI; test: NCI one-dose screening, melanoma LOX IMVI; assay type: cell-based, human; details: 10 μM
[41] = tested on: CCRF-CEM; test: NCI screening platform one-dose single concentration screening, leukemia CCRF-CEM; assay type: cell-based, human; details: 10 μM
[42] = tested on: MCF7; test: NCI one-dose screening, breast cancer MCF7; assay type: cell-based, human; details: 10 μM
[43] = tested on: KM12; test: NCI one-dose screening, colon cancer KM12; assay type: cell-based, human; details: 10 μM
[44] = tested on: SF-268; test: NCI one-dose screening, CNS cancer SF-268; assay type: cell-based, human; details: 10 μM
[45] = tested on: MDA-MB-468; test: NCI one-dose screening, breast cancer MDA-MB-468; assay type: cell-based, human; details: 10 μM
[46] = tested on: SR; test: NCI one-dose screening, leukemia SR; assay type: cell-based, human; details: 10 μM
[47] = tested on: OVCAR-3; test: NCI one-dose screening, ovarian cancer OVCAR-3; assay type: cell-based, human; details: 10 μM
[48] = tested on: 786-O; test: NCI one-dose screening, renal cancer 786-O; assay type: cell-based, human; details: 10 μM
[49] = tested on: NCI-H322M; test: NCI one-dose screening, non-small cell lung cancer NCI-H322M; assay type: cell-based, human; details: 10 μM; Non-small cell lung cancer
[50] = tested on: SN12C; test: NCI one-dose screening, renal cancer SN12C; assay type: cell-based, human; details: 10 μM
[51] = tested on: DU145; test: NCI one-dose screening, prostate cancer DU145; assay type: cell-based, human; details: 10 μM
[52] = tested on: HOP-62; test: NCI one-dose screening, non-small cell lung cancer HOP-62; assay type: cell-based, human; details: 10 μM
[53] = tested on: MOLT-4; test: NCI one-dose screening, leukemia MOLT-4; assay type: cell-based, human; details: 10 μM
[54] = NCI one-dose screening, renal cancer A489; assay type: cell-based, human; details: 10 μM
[55] = tested on: BT-549; test: NCI one-dose screening, breast cancer BT-549; assay type: cell-based, human; details: 10 μM
[56] = tested on: HCC-2998; test: NCI one-dose screening, colon cancer HCC-2998; assay type: cell-based, human; details: 10 μM

Question: What does the source list for `O=C1c2ccccc2C(=O)c2c1cc(Sc1ccc(Cl)cc1)c1nsnc21` [C22, 4-(4-chloro-phenylthio)anthra[2,1-c] [1,2,5]thiadiazol-6,11-dione]?
Answer: Growth Percent NCI-H23 [1]: 104.26%; Growth Percent NCI-H460 [2]: 99.52%; Growth Percent T-47D [3]: 85.04%; Growth Percent MALME-3M [4]: 105.10%; Growth Percent HL-60(TB) [5]: 87.34%; Growth Percent SF-539 [6]: 107.00%; Growth Percent CAKI-1 [7]: 86.97%; Growth Percent OVCAR-8 [8]: 88.60%; Growth Percent M14 [9]: 105.44%; Growth Percent OVCAR-4 [10]: 76.82%; Growth Percent TK-10 [11]: 139.80%; Growth Percent SNB-19 [12]: 105.18%; Growth Percent SK-OV-3 [13]: 108.96%; Growth Percent HOP-92 [14]: 101.98%; Growth Percent NCI-H226 [15]: 94.77% and 93.41%; Growth Percent SK-MEL-2 [16]: 109.49%; Growth Percent Delta ([17]; delta over all cell lines): 51.95%; Growth Percent Mean ([17]; mean over all cell lines): 98.08%; Growth Percent Range ([17]; range over all cell lines): 93.67%; Growth Percent UACC-257 [18]: 95.45%; Growth Percent SK-MEL-28 [19]: 130.48%; Growth Percent SNB-75 [20]: 91.73%; Growth Percent HCT-15 [21]: 98.10%; Growth Percent IGROV1 [22]: 84.93%; Growth Percent HCT-116 [23]: 98.25%; Growth Percent PC-3 [24]: 86.94%; Growth Percent NCI/ADR-RES [25]: 102.42%; Growth Percent U251 [26]: 103.69%; Growth Percent NCI-H522 [27]: 102.62%; Growth Percent K562 [28]: 94.91%; Growth Percent A549/ATCC [29]: 103.88%; Growth Percent COLO 205 [30]: 121.41%; Growth Percent RPMI-8226 [31]: 90.15%; Growth Percent HS 578T [32]: 103.37%; Growth Percent SF-295 [33]: 97.26%; Growth Percent UACC-62 [34]: 90.65%; IC50 [35]: > 15 µM; Growth Percent RXF 393 [36]: 117.52%; Growth Percent UO-31 [37]: 79.46%; Growth Percent MDA-MB-435 [38]: 106.67%; Growth Percent MDA-MB-231/ATCC [39]: 89.05%; Growth Percent LOX IMVI [40]: 83.24%; Growth Percent CCRF-CEM [41]: 79.34%; Growth Percent MCF7 [42]: 86.11%; Growth Percent KM12 [43]: 101.50%; Growth Percent SF-268 [44]: 104.55%; Growth Percent MDA-MB-468 [45]: 46.13%; Growth Percent SR [46]: 110.89%; Growth Percent OVCAR-3 [47]: 118.64%; Growth Percent 786-0 [48]: 108.70%; Growth Percent NCI-H322M [49]: 100.11%; Growth Percent SN12C [50]: 86.95%; Growth Percent DU145 [51]: 117.15%; Growth Percent HOP-62 [52]: 94.80%; Growth Percent MOLT-4 [53]: 59.21%; Growth Percent A498 [54]: 93.03%; Growth Percent BT-549 [55]: 98.88%; Growth Percent HCC-2998 [56]: 106.82%

Question: With `CC(C)(C)c1ccc(CSc2cc3c(c4nsnc24)C(=O)c2ccccc2C3=O)cc1` [C57, 4-(4-tert-butylbenzylthio)anthra[2,1-c] [1,2,5]thiadiazol-6,11-dione] as the compound, how does the IC50 [35] read?
Answer: 7.47 µM

Question: What about the melting point of the same compound?
Answer: 256 to 257 °C
